According to paper PMC9879287 (Current research in chemical biology, 2022):
Values belong to the compound of their own block, whether it stands above or below them.

Key:
[1] = molecular target: BTK (Homo sapiens, UniProt Q06187); assay: Western blotting for BTK in Mino cells; assay type: cell-based; settings: 24 h; for BTK degradation in Mino cells: Western blotting
[2] = molecular target: BTK-nLuc fusion protein (Homo sapiens, UniProt Q06187+Q96SW2); assay: BTK-nLuc endpoint degradation assay; assay type: cell-based; settings: HEK-293T cells stably expressing BTK-nLuc, 24 h
[3] = molecular target: IKZF3 (Homo sapiens, UniProt Q96SW2+Q9UKT9); assay: Western blotting for IKZF3 in Mino cells; assay type: cell-based; settings: at 40 nM; assay not given
[4] = molecular target: IKZF1 (Homo sapiens, UniProt Q13422+Q96SW2); assay: Western blotting for IKZF1 in Mino cells; assay type: cell-based; settings: at 200 nM; assay not given
[5] = molecular target: T1, IKZF3-nLuc (Homo sapiens, UniProt Q96SW2+Q9UKT9); assay type: cell-based
[6] = molecular target: T1, IKZF3-nLuc; settings: other cell line
[7] = test system: Mino cells; assay: cells; assay type: cell-based; settings: Homo sapiens, read-out: Mino IC50
[8] = molecular target: IKZF1-nLuc (Homo sapiens, UniProt Q13422+Q96SW2); settings: other cell line
[9] = test system: Rec-R cells; assay: Alarma Blue cell viability assay, Rec-R; assay type: cell-based
[10] = test system: Jeko-1 cells; assay: Alarma Blue cell viability assay, Jeko-1; assay type: cell-based
[11] = molecular target: His-BTK (Homo sapiens, UniProt Q06187); assay: TR-FRET competition binding assay with BTK-BODIPY tracer; settings: 2 h incubation, 150 nM tracer, 2 nM His-BTK
[12] = test system: MOLM14 cells; assay: Alarma Blue cell viability assay, MOLM14; assay type: cell-based; settings: Homo sapiens, MOLM-14, 72 h, read-out: MOLM14 IC50

Sequence of BTK (Q06187 whole entry, the tested form may be a part): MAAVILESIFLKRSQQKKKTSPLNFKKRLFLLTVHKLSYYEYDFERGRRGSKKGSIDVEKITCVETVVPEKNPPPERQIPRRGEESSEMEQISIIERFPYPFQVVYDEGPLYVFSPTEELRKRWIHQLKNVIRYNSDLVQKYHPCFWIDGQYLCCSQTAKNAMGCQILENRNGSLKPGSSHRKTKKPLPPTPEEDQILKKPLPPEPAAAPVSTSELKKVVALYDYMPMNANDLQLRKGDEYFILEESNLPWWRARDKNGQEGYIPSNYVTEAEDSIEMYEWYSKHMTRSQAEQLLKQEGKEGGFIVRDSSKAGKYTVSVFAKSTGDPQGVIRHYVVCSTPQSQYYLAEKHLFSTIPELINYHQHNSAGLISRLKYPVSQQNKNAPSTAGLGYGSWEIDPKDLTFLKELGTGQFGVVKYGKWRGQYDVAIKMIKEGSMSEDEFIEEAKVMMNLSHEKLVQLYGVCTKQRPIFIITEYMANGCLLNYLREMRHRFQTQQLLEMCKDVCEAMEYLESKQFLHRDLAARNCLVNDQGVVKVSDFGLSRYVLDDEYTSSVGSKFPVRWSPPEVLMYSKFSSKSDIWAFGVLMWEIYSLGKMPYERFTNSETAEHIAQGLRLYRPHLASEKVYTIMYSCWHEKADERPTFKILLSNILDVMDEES
Sequence of IKZF3 (Q9UKT9 whole entry): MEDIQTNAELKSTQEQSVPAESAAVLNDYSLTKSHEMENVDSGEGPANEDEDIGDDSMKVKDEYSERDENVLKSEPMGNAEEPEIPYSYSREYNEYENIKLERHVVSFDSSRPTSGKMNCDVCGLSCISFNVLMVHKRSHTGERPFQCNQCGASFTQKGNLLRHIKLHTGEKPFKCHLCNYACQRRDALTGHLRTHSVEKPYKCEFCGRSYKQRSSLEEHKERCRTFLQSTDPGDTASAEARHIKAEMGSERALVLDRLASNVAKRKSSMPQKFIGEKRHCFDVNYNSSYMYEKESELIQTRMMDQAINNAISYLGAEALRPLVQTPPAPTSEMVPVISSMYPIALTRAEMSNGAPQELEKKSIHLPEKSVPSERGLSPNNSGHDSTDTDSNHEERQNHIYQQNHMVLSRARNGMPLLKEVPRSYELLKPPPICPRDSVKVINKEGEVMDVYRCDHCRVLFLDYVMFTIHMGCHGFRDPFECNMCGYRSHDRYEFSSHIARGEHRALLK
Sequence of IKZF3 (Q96SW2 whole entry): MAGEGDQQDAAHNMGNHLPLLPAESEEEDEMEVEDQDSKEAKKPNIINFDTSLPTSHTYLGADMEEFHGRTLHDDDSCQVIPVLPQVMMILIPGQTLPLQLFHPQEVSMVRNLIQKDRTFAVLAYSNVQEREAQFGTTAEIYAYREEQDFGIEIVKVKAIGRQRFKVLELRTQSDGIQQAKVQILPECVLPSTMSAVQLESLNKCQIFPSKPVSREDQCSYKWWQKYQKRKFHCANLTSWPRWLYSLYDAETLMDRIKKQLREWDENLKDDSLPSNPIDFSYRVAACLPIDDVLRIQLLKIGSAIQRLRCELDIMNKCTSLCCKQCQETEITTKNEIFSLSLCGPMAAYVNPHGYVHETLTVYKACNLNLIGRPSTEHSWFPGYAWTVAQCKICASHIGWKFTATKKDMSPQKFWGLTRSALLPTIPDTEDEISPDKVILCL
Sequence of IKZF3 (Q16531 whole entry partner): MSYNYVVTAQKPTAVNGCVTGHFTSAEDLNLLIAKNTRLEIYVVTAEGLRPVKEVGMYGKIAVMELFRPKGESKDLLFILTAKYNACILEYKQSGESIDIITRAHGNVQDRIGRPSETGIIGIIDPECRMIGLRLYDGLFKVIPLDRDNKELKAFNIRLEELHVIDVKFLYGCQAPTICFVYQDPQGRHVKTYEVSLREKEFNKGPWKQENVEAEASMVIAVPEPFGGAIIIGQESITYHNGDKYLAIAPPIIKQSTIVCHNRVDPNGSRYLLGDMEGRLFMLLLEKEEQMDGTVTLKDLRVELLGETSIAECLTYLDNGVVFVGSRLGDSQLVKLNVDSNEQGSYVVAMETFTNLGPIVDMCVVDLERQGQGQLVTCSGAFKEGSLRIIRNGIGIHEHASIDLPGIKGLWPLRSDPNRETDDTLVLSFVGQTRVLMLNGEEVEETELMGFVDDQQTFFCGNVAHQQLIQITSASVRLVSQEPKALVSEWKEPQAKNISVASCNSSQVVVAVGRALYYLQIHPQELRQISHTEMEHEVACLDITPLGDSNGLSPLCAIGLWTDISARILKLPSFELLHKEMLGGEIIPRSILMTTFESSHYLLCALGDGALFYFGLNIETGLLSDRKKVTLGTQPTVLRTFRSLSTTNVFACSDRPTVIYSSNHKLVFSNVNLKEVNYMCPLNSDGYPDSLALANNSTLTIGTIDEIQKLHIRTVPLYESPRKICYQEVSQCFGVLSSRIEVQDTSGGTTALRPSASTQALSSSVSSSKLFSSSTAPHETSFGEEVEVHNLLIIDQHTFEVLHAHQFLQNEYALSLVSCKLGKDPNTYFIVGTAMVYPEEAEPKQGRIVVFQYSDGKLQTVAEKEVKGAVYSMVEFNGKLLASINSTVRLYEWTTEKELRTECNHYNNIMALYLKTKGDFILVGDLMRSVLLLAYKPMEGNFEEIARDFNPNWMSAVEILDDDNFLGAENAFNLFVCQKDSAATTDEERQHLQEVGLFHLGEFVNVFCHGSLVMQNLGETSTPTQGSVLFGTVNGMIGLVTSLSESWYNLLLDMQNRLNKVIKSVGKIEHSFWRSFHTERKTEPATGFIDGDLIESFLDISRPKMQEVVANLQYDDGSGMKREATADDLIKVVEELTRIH
T1 sequence (Q9UKT9 whole entry): as the sequence (Q9UKT9 whole entry) above
T1 sequence (Q96SW2 whole entry): as the sequence (Q96SW2 whole entry) above
T1 sequence (Q16531 whole entry partner): as the sequence (Q16531 whole entry partner) above
Sequence of BTK-nLuc fusion protein (Q06187 whole entry, the tested form may be a part): as the sequence (Q06187 whole entry, the tested form may be a part) above
Sequence of BTK-nLuc fusion protein (Q96SW2 whole entry, the tested form may be a part): as the sequence (Q96SW2 whole entry) above
Sequence of BTK-nLuc fusion protein (Q16531 whole entry partner, the tested form may be a part): as the sequence (Q16531 whole entry partner) above
Sequence of IKZF1 (Q13422 whole entry): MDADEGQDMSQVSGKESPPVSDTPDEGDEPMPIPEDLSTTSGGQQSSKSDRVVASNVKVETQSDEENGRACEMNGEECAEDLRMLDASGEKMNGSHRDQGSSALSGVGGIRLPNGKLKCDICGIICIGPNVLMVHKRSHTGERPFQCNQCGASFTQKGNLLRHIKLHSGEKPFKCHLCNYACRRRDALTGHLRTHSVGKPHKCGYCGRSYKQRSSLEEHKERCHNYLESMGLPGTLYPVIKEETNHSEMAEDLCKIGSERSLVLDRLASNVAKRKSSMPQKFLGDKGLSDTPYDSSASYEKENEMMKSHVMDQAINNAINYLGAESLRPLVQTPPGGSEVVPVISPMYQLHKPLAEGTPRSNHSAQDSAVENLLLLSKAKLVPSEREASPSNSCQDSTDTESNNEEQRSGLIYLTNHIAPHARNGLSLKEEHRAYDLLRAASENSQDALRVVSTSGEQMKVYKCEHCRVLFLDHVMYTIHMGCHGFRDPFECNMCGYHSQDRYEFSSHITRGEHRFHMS
Sequence of IKZF1 (Q96SW2 whole entry): as the sequence (Q96SW2 whole entry) above
Sequence of IKZF1 (Q16531 whole entry partner): as the sequence (Q16531 whole entry partner) above
Sequence of His-BTK (Q06187 whole entry): as the sequence (Q06187 whole entry, the tested form may be a part) above
Sequence of IKZF1-nLuc (Q13422 whole entry): as the sequence (Q13422 whole entry) above
Sequence of IKZF1-nLuc (Q96SW2 whole entry): as the sequence (Q96SW2 whole entry) above
Sequence of IKZF1-nLuc (Q16531 whole entry partner): as the sequence (Q16531 whole entry partner) above

SMILES: O=C1CC[C@H](N2Cc3c(OCc4ccc(CN5CCOCC5)cc4)cccc3C2=O)C(=O)N1 [CC220]
BTK degradation in Mino cells [1]: In contrast to PS-1, PS-3 and CC-220, PS-2 potently induces BTK degradation

SMILES: Cc1c(NC(=O)c2ccc(C(C)(C)C)cc2)cccc1-c1cn(C)c(=O)c(Nc2ccc(C(=O)N3CCN(CCCCCCNC(=O)CNc4cccc5c4C(=O)N(C4CCC(=O)NC4=O)C5=O)CC3)cc2)n1 (centres unmarked) [DD-03-171]
BTK-nLuc Dmax [2]: 96% | DC50 ([2]; read-out: BTK-nLuc DC50): 25.9 nM | BTK WB Dmax ([1]; Mino cells): 99% | BTK degradation in Mino cells [1]: potently induces BTK degradation

SMILES: Nc1cccc2c1C(=O)N(C1CCC(=O)NC1=O)C2=O (centres unmarked) [Pomalidomide, pomalidomide]
IKZF3 degradation half-life [6]: 1.9 h | IC50 [7]: 329 nM | IKZF1 degradation half-life [8]: 4.9 h | response of Rec-R cells [9]: only Mino cells are responsive | response of Jeko-1 cells [10]: only Mino cells are responsive

SMILES: C=CC(=O)Nc1cccc(Oc2nc(Nc3ccc(N4CCN(C)CC4)cc3)nc3ccoc23)c1 [Poseltinib, poseltinib]
IC50 [11]: 1.21 nM | IC50 [12]: 2900 nM

Other lines, results leading:

IKZF3 degradation [3]: do not degrade IKZF3 | IKZF1 degradation [4]: substantial IKZF1 degradation
SMILES: Nc1ccc(N2CCN(C(=O)CNc3cccc4c3C(=O)N(C3CCC(=O)NC3=O)C4=O)CC2)cc1 (centres unmarked) [PS-4]

IKZF3 degradation in the nLuc assay [5]: appear to be potent IKZF3 degraders | IKZF3 degradation [3]: do not degrade IKZF3 | IKZF1 degradation [4]: less potent
SMILES: CN1CCN(C(=O)CNc2cccc3c2C(=O)N(C2CCC(=O)NC2=O)C3=O)CC1 (centres unmarked) [PS-5]
